Reference: US20140072557A1, “MEDICINAL AGENT FOR SUPPRESSING MALIGNANT TUMOR METASTASIS” (priority 2011, published 2014)
Bridges are numbered along the chain shown (N, C = ends). Where no end group is shown, it is not given here.

Legend:
[1] = system: A549 cells; test: EMT induced by TGF-β1 in A549 cells (morphology, quantitative RT-PCR); assay type: cell-based; settings: final concentration 1 μM, A549 cells
Method: Using a 6-well dish, the A549 cells were cultured at 1×10^5 cells/well, and the culture medium was replaced with DMEM culture medium free from FBS the next day. After 24 hours of culture, the cells were used in the following experiment.
An ANP group (ANP solution was added (final concentration: 1 μM)) and a control group (the same amount of physiological saline was added) were prepared, and after 2 hours from the addition, TGF-β1 was added so that the final concentration would be 0.125, 0.25, 0.5, 1.0, and 2.0 ng/mL. After 24 hours had passed, the morphological change in the cells was observed under a microscope and photographed (FIG. 3).
Then, total RNA was collected using TRIZOL total RNA isolation reagent (made by Invitrogen), cDNA was synthesized using reverse transcriptase, and the mRNA levels of E-cadherin, N-cadherin, VEGF-A, PDGF-B, TNF-α, and IL-6 were measured by quantitative RT-PCR. It is known that in EMT, the expression of E-cadherin decreases while the expression of N-cadherin increases. The expression ratio of N-cadherin/E-cadherin is considered to be useful as an indicator of the degree of EMT.

[2] = target: T1, natriuretic peptide receptor GC-B (Homo sapiens, UniProt P20594); settings: Furuya et al. 1992; cited from earlier work
T1 sequence (P20594 23-1047): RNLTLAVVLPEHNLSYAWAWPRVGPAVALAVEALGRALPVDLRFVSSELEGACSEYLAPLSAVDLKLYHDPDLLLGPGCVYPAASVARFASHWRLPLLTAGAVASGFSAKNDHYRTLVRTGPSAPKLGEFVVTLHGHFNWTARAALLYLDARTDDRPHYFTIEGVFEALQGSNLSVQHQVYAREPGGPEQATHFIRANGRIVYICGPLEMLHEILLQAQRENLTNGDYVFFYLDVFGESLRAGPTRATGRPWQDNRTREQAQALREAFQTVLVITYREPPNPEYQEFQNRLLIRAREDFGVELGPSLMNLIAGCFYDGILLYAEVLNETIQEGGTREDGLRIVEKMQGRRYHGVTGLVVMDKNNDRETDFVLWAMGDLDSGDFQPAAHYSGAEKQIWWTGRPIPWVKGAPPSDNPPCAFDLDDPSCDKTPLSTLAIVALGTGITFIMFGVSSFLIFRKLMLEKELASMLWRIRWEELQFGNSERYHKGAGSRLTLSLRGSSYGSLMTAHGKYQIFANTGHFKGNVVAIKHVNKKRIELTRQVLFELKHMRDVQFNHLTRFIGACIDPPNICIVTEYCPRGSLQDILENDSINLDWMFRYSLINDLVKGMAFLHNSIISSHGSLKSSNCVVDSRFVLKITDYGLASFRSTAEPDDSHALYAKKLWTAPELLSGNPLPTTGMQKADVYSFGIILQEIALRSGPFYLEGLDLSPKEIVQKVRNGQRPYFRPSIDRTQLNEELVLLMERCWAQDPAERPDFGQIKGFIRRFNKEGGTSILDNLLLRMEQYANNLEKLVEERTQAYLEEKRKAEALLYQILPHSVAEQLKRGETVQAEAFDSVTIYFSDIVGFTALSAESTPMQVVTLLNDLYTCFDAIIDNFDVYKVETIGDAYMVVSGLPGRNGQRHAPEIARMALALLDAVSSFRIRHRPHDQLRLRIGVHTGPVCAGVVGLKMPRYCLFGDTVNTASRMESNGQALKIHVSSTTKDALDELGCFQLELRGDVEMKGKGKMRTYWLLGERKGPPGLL

[3] = system: mouse melanoma B16-F10; test: Mouse tail vein injection metastasis test, mouse melanoma B16-F10; assay type: in vivo, mice; settings: 2.5 μg/kg/min by subcutaneous osmotic pump, 2 weeks
Method: 6-week-old male […] mice were used (purchased from Japan SLC, Inc.). Mouse melanoma B16-F10 was purchased from ATCC, and cultured in DMEM (Life Technologies Corp.) containing 10% FCS under 5% CO2 at 37° C. The cells in a subconfluent state were treated with EDTA-trypsin, centrifuged, and then suspended in serum free DMEM so as to be 5×10^6 cells/mL. The melanoma cell suspension (100 μL/mouse, 5×10^5 cells) was injected to the tail vein of the mice. The osmotic pumps used were MODEL2002 (for 14-day administration) made by ALZET (Cupertino, Calif,.).
Mice into which an osmotic pump containing 0.9% physiological saline was subcutaneously implanted in the back were assigned to the control group. Similarly, an osmotic pump containing hANP prepared for administration at 0.5 μg/kg/min was subcutaneously implanted into each mouse in the ANP group, an osmotic pump containing mouse BNP prepared for administration at 0.5 μg/kg/min was subcutaneously implanted into each mouse in the BNP group, and an osmotic pump containing hCNP-22 prepared for administration at 2.5 μg/kg/min was subcutaneously implanted into each mouse in the CNP group. To the mice in the sildenafil group, sildenafil citrate at a dosage of 20 mg/kg was intraperitoneally administered once daily. […]

[4] = system: A549 cells; test: Intracellular cGMP level in A549 cells on natriuretic peptide stimulus; assay type: cell-based; settings: 1×10^−11 M to 1×10^−6 M, 10 minutes
Method: The A549 cells were cultured in a 24-well dish at 4×10^4 cells/well, and the culture medium was replaced with DMEM culture medium free from FCS the next day. To the culture medium, solutions of hANP, hBNP, and hCNP (final concentration: ten-fold serial dilution from 1×10^−11 M to 1×10^−6 M, the same amount of physiological saline was used as a control) were separately added. After 10 minutes passed, 400 μL of cooled 70% ethanol (containing 0.1 N hydrochloric acid) was added, and ultrasonication was performed for a short time. The treated solution was lyophilized, and the cGMP level was measured using Cyclic GMP Assay kit (made by Yamasa Corp.).

With “LKL-ANP: a mutant in which the amino acids at positions 10 to 12 of hANP are replaced with LKL (SLRRSSCFGLKLDRIGAQSGLGCNSFRY; ends and bridges not checked; cysteine pairing not given here; UniProt P01160 124-151, looked up, variant G10L R11K M12L)” the “ratio of suppression of EMT induced by TGF-β in terms of E-cad/Ncad” value [1] was 52.9%.
In the case of “hCNP6-22: peptide consisting of amino acids from position 6 to position 22 of SEQ ID NO: 7 (ring structure only) (CFGLKLDRIGSMSGLGC; disulfide 1-17 (inferred); listed as Homo sapiens)”, the “GC-B agonist activity compared with hCNP-22” value [2] is given as “comparable to that of hCNP-22”.
With “hCNP: 22-amino acid CNP-22 of human origin, GLSKGCFGLK LDRIGSMSGL GC (SEQ ID NO: 7), GC-B agonist (GLSKGCFGLKLDRIGSMSGLGC; listed as Homo sapiens)” the “lung metastasis of melanoma (number of nodules)” value [3] was “significantly suppressed” and the “intracellular cGMP level” value [4] was “did not show such increase”.
In the case of nesiritide [hBNP], the “intracellular cGMP level” value [4] is reported as “increased the intracellular cGMP level of the A549 cells in a concentration-dependent manner”.
